Data on 15 molecules can be found in US20250136722A1, “CYTOTOXICITY TARGETING CHIMERAS” (GLAXOSMITHKLINE INTELLECTUAL PROPERTY DEVELOPMENT LIMITED, priority 2021, published 2025).

In experiment [1] the target is T1, CHOK1 cells engineered to overexpress human CCR2 (Homo sapiens, UniProt P41597).
T1 construct: expressed in transfected cells; host or cells: CHOK1 cells
The experiment can be described thus: Antibody dependent cellular cytotoxicity (ADCC) reporter assay (Example 199). It counts as cell-based. Particulars: with anti-cotinine antibody SEQ ID NO: 11/12; CHOK1-human CCR2 target cells, Jurkat FcγRIIIa NFAT-luciferase reporter cells; 12-18 hours; read-out: ADCC Reporter Assay pEC50 (converted). An outline of the steps:
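Potency is reported as pEC50 from a nonlinear fit, averaged over runs, using luciferase signal divided by that of compound-free wells. The readout comes from NFAT-luciferase Jurkat cells expressing FcγRIIIa, mixed for 12–18 h with human CCR2-overexpressing CHOK1 cells, 1 pM–10 μM ARM compound and 0.01–200 μg/mL Fc-enhanced anti-cotinine IgG1.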

Experiment [2] has as its target human alpha1 nicotinic acetylcholine (nACh) receptor (Homo sapiens, UniProt P02708+Q07001). The experiment can be described thus: Nicotinic acetylcholine receptor antagonism assay, IONFlux automated patch clamp (Example 203). The following applies: for Emax at 100 µM: maximum percentage antagonism at maximum concentration tested 100 μM; for Emax at 100 µM / Emax at 10 µM: read-out: Maximum Response (%); for IC50: nAChR antagonism, ACh stimulated, patch clamp; for Emax at 10 µM: maximum percentage antagonism at maximum concentration tested 10 μM. The format is cell-based. As for the experimental part: Cells expressing human alpha1 nicotinic acetylcholine (nACh) receptor (nAChR) were washed and dissociated using Trypsin containing buffer. Cells were then washed and seeded at a density of 3-5 million cells/mL and allowed to grow for 3 days. Then, 60-80 μL of cells were added to plates and incubated with dose response of an ARM compound of Formula (I) with a top concentration of either 10 μM or 100 μM. The receptor was then stimulated via addition of acetylcholine (ACh) and activation of the receptor was monitored via the IONFlux automated patch clamp system. IonFlux Data Analyzer software was utilized to perform leak subtraction and measure (min) peak current amplitude.
Data processing: (1) Current values recorded for vehicle only applications in individual traps/patterns were subtracted from corresponding current amplitude values for control, test article and control+test article. (2) Control response was calculated as % of the average response of the 3rd out of total 3 ACh (10 mM) applications alone. In rare situations, if the 3rd ACh response was obscured due to technical artifacts, the 2nd and/or 1 st ACh (10 mM) application was considered as control. The peak current amplitude generated in the presence of each test article concentration was then used to calculate the % inhibition as compared to control response (10 mM ACh alone). These estimates were further corrected for vehicle response and run down corrected by normalizing with time matched control responses (10 mM ACh alone). The corrected percentages were then fit with a non-linear function in GraphPad Prism 6 (or later versions) to determine the […].
Exclusion criteria: (i) any n's with poor recording quality, (ii) control current amplitude <500 pA or (iii) significant outliers, as determined by the Grubbs' test.
ARMs compounds of Formula (I) of the invention were tested for antagonism of the nAChR in the above assay in […] experimental runs and the results are shown in Table 7 below. Antagonistic activity of the compounds of Formula (I) of the invention is reported as an IC50 value (half maximal inhibitory concentration) and the maximum percentage antagonism observed at the highest concentration of compound of Formula (I) tested, as indicated in Table 7. For compounds tested in more than one experimental run, the IC50 value is reported as an average.
(In general: In patch-clamp work, channel activity is measured electrically.)

Counter-ions that a name gives are not always drawn.

Chain of human alpha1 nicotinic acetylcholine (nACh) receptor (P02708 21-457): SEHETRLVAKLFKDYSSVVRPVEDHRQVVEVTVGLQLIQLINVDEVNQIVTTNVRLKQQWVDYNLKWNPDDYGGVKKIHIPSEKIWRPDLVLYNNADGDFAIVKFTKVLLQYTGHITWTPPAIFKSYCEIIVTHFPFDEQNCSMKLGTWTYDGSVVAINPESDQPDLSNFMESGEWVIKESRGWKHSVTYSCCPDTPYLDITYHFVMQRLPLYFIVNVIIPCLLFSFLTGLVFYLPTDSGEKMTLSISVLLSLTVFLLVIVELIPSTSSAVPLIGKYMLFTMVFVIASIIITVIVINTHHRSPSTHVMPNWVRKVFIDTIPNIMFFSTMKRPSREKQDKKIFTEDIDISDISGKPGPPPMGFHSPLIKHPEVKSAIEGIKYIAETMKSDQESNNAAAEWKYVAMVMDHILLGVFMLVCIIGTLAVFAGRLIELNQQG
Chain of human alpha1 nicotinic acetylcholine (nACh) receptor (P11230 24-501 partner): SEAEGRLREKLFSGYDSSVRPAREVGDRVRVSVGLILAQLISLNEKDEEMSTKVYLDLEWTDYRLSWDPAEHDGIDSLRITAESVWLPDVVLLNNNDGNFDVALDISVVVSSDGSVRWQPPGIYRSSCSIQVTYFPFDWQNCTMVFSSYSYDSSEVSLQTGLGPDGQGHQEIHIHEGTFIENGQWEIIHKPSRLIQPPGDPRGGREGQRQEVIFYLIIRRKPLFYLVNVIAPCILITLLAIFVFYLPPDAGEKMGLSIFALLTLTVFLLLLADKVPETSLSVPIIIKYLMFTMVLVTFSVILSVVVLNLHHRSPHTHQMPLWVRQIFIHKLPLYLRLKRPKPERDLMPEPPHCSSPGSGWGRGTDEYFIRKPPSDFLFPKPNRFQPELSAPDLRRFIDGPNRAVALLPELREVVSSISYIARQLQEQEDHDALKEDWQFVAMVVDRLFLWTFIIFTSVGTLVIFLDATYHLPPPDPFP
Chain of human alpha1 nicotinic acetylcholine (nACh) receptor (Q07001 22-517): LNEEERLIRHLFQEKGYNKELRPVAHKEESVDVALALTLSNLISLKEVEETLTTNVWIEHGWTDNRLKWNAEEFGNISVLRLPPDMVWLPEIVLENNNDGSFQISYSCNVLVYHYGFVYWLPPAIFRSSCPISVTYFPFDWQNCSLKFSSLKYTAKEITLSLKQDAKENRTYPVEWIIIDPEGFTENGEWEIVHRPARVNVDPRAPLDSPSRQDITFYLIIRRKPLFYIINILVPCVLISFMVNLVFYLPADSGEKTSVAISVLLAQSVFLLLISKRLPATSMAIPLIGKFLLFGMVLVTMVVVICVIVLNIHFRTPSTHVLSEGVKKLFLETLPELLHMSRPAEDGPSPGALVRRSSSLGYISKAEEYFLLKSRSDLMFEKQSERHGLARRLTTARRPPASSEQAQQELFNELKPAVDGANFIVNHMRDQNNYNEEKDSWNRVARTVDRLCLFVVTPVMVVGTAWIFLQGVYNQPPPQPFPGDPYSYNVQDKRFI

Usually IC50 stands for the concentration at which inhibition is half-maximal. The low end stands for inhibition by little substance, the high end for a need for much substance. For the molecule `CC(C)N(C)[C@@H]1CC[C@H](N2CC[C@H](Nc3ncnc4ccc(C(F)(F)F)cc34)C2=O)[C@H](NC(=O)[C@H]2C[C@@H](NC(=O)CCCO[C@H]3CC[C@H](OCCNC(=O)[C@H]4CC(=O)N(C)[C@@H]4c4cccnc4)CC3)C2)C1` [Example 9], in experiment [1], the EC50 is 25.1 nM. Further, in experiment [2], the Emax at 100 µM was found to be 53.9% and the IC50 amounted to 82 µM.

For the molecule `CC(C)N(C)[C@@H]1CC[C@H](N2CC[C@H](Nc3ncnc4ccc(C(F)(F)F)cc34)C2=O)[C@H](NC(=O)CCOCCOCCO[C@H]2CC[C@H](OCCNC(=O)[C@H]3CC(=O)N(C)[C@@H]3c3cccnc3)CC2)C1` [Example 192, (2S,3S)-N-(2-(((1R,4S)-4-(2-(2-(3-(((1R,2S,5R)-5-(Isopropyl(methyl)amino)-2-((S)-2-oxo-3-((6-(trifluoromethyl)quinazolin-4-yl)amino)pyrrolidin-1-yl)cyclohexyl)amino)-3-oxopropoxy)ethoxy)ethoxy)cyclohexyl)oxy)ethyl)-1-methyl-5-oxo-2-(pyridin-3-yl)pyrrolidine-3-carboxamide], in experiment [2], the Emax at 100 µM stood at 53% and it took 74.3 µM to reach half-maximal inhibition (IC50).

Turning to `CC(C)N(C)[C@@H]1CC[C@H](N2CC[C@H](Nc3ncnc4ccc(C(F)(F)F)cc34)C2=O)[C@H](NC(=O)[C@H]2C[C@H](NC(=O)CCOCCOCCOCCNC(=O)[C@H]3CC(=O)N(C)[C@@H]3c3cccnc3)C2)C1` [Example 27], the EC50 in experiment [1] was 7.28 nM. For the same molecule, in experiment [2], the Emax at 100 µM amounted to 53.8% and inhibition was half-maximal at 93.7 µM (IC50).

As for `CC(C)N(C)[C@@H]1CC[C@H](N2CC[C@H](Nc3ncnc4ccc(C(F)(F)F)cc34)C2=O)[C@H](NC(=O)c2ccc(N3CCC(C(=O)NCCOCCOCCNC(=O)[C@H]4CC(=O)N(C)[C@@H]4c4cccnc4)CC3)cc2)C1` [Example 130, 1-(4-(((1R,2S,5R)-5-(Isopropyl(methyl)amino)-2-((S)-2-oxo-3-((6-(trifluoromethyl)quinazolin-4-yl)amino)pyrrolidin-1-yl)cyclohexyl)carbamoyl)phenyl)-N-(2-(2-(2-((2S,3S)-1-methyl-5-oxo-2-(pyridin-3-yl)pyrrolidine-3-carboxamido)ethoxy)ethoxy)ethyl)piperidine-4-carboxamide], the EC50 in experiment [1] is 3.98 nM. Also, in experiment [2], the Emax at 10 µM was found to be 16.8% and the IC50 was more than 10 µM.

On to `CC(C)N(C)[C@@H]1CC[C@H](N2CC[C@H](Nc3ncnc4ccc(C(F)(F)F)cc34)C2=O)[C@H](NC(=O)C2CCN(c3ccc(C(=O)NCCOCCOCCNC(=O)[C@H]4CC(=O)N(C)[C@@H]4c4cccnc4)cc3)CC2)C1` [Example 142], for which, in experiment [1], the EC50 was 0.501 nM. In experiment [2], the Emax at 10 µM was found to be 13.1% and the IC50 is more than 10 µM.

For `CC(C)N(C)[C@@H]1CC[C@H](N2CC[C@H](Nc3ncnc4ccc(C(F)(F)F)cc34)C2=O)[C@H](NC(=O)CCc2ccc(C3CCN(C(=O)CCCCCNC(=O)[C@H]4CC(=O)N(C)[C@@H]4c4cccnc4)CC3)cc2)C1` [Example 86, (2S,3S)-N-(6-(4-(4-(3-(((1R,2S,5R)-5-(Isopropyl(methyl)amino)-2-((S)-2-oxo-3-((6-(trifluoromethyl)quinazolin-4-yl)amino)pyrrolidin-1-yl)cyclohexyl)amino)-3-oxopropyl)phenyl)piperidin-1-yl)-6-oxohexyl)-1-methyl-5-oxo-2-(pyridin-3-yl)pyrrolidine-3-carboxamide], the EC50 in experiment [1] was 7.94 nM.

Consider `CC(C)N(C)[C@@H]1CC[C@H](N2CC[C@H](Nc3ncnc4ccc(C(F)(F)F)cc34)C2=O)[C@H](NC(=O)CCCCCCCCC(=O)NCCCCCCCCCCNC(=O)[C@H]2CC(=O)N(C)[C@@H]2c2cccnc2)C1` [Example 165, N^1-((1R,2S,5R)-5-(isopropyl(methyl)amino)-2-((S)-2-oxo-3-((6-(trifluoromethyl)quinazolin-4-yl)amino)pyrrolidin-1-yl)cyclohexyl)-N^10-(10-((2S,3S)-1-methyl-5-oxo-2-(pyridin-3-yl)pyrrolidine-3-carboxamido)decyl)decanediamide], for which, in experiment [1], the EC50 is 1.26 nM.

In the case of `CC(C)N(C)[C@@H]1CC[C@H](N2CC[C@H](Nc3ncnc4ccc(C(F)(F)F)cc34)C2=O)[C@H](NC(=O)c2ccc(NCCOCCOCCOCCOCCNC(=O)[C@H]3CC(=O)N(C)[C@@H]3c3cccnc3)nn2)C1` [Example 125], the EC50 in experiment [1] was 3.16 nM.

Take `CC(C)N(C)[C@@H]1CC[C@H](N2CC[C@H](Nc3ncnc4ccc(C(F)(F)F)cc34)C2=O)[C@H](NC2CCC(C(=O)NCCOCCOCCNC(=O)[C@H]3CC(=O)N(C)[C@@H]3c3cccnc3)CC2)C1` (stereo partly drawn) [Example 68]: in experiment [1], the EC50 is 10 nM.

Consider `CC(C)N(C)[C@@H]1CC[C@H](N2CC[C@H](Nc3ncnc4ccc(C(F)(F)F)cc34)C2=O)[C@H](NC(=O)CCCCCCCCNCCOCCOCCOCCOCCNC(=O)[C@H]2CC(=O)N(C)[C@@H]2c2cccnc2)C1` [Example 195, (2S,3S)-N-(24-(((1R,2S,5R)-5-(Isopropyl(methyl)amino)-2-((S)-2-oxo-3-((6-(trifluoromethyl)quinazolin-4-yl)amino)pyrrolidin-1-yl)cyclohexyl)amino)-24-oxo-3,6,9,12-tetraoxa-15-azatetracosyl)-1-methyl-5-oxo-2-(pyridin-3-yl)pyrrolidine-3-carboxamide, 3Trifluoroacetic acid salt], for which the EC50 in experiment [1] is 0.158 nM.

With `CC(C)N(C)[C@@H]1CC[C@H](N2CC[C@H](Nc3ncnc4ccc(C(F)(F)F)cc34)C2=O)[C@H](NC(=O)c2cnn(C3CCN(CCOCCOCCOCCNC(=O)[C@H]4CC(=O)N(C)[C@@H]4c4cccnc4)CC3)c2)C1` [Example 129, N-((1R,2S,5R)-5-(Isopropyl(methyl)amino)-2-((S)-2-oxo-3-((6-(trifluoromethyl)quinazolin-4-yl)amino)pyrrolidin-1-yl)cyclohexyl)-1-(1-(1-((2S,3S)-1-methyl-5-oxo-2-(pyridin-3-yl)pyrrolidin-3-yl)-1-oxo-5,8,11-trioxa-2-azatridecan-13-yl)piperidin-4-yl)-1H-pyrazole-4-carboxamide], the EC50 in experiment [1] is 5.01 nM.

On to `CC(C)N(C)[C@@H]1CC[C@H](N2CC[C@H](Nc3ncnc4ccc(C(F)(F)F)cc34)C2=O)[C@H](NC(=O)C2CCN(CCCCCCCCNC(=O)[C@H]3CC(=O)N(C)[C@@H]3c3cccnc3)CC2)C1` [Example 144, N-((1R,2S,5R)-5-(Isopropyl(methyl)amino)-2-((S)-2-oxo-3-((6-(trifluoromethyl)quinazolin-4-yl)amino)pyrrolidin-1-yl)cyclohexyl)-1-(8-((2S,3S)-1-methyl-5-oxo-2-(pyridin-3-yl)pyrrolidine-3-carboxamido)octyl)piperidine-4-carboxamide, 3Formic acid salt], for which the EC50 in experiment [1] was 3.16 nM.

Consider `CC(C)N(C)[C@@H]1CC[C@H](N2CC[C@H](Nc3ncnc4ccc(C(F)(F)F)cc34)C2=O)[C@H](NC(=O)C2CCN(C3CCN(CCOCCOCCNC(=O)[C@H]4CC(=O)N(C)[C@@H]4c4cccnc4)CC3)CC2)C1` [Example 90, N-((1R,2S,5R)-5-(Isopropyl(methyl)amino)-2-((S)-2-oxo-3-((6-(trifluoromethyl)quinazolin-4-yl)amino)pyrrolidin-1-yl)cyclohexyl)-1′-(2-(2-(2-((2S,3S)-1-methyl-5-oxo-2-(pyridin-3-yl)pyrrolidine-3-carboxamido)ethoxy)ethoxy)ethyl)-[1,4′-bipiperidine]-4-carboxamide], for which the EC50 in experiment [1] was 2 nM.

Take `CC(C)N(C)[C@@H]1CC[C@H](N2CC[C@H](Nc3ncnc4ccc(C(F)(F)F)cc34)C2=O)[C@H](NC(=O)CNC(=O)[C@H]2CC[C@@H](NC(=O)COCCOCCNC(=O)[C@H]3CC(=O)N(C)[C@@H]3c3cccnc3)CC2)C1` [Example 136, (2S,3S)-N-(2-(2-(2-(((1S,4R)-4-((2-(((1R,2S,5R)-5-(Isopropyl(methyl)amino)-2-((S)-2-oxo-3-((6-(trifluoromethyl)quinazolin-4-yl)amino)pyrrolidin-1-yl)cyclohexyl)amino)-2-oxoethyl)carbamoyl)cyclohexyl)amino)-2-oxoethoxy)ethoxy)ethyl)-1-methyl-5-oxo-2-(pyridin-3-yl)pyrrolidine-3-carboxamide]: in experiment [1], the EC50 was 4.91 nM.

With `CC(C)N(C)[C@@H]1CC[C@H](N2CC[C@H](Nc3ncnc4ccc(C(F)(F)F)cc34)C2=O)[C@H](NC(=O)[C@H]2CC[C@H](N3CCN(C(=O)CCCCCCCCNC(=O)[C@H]4CC(=O)N(C)[C@@H]4c4cccnc4)CC3)CC2)C1` [Example 155], the EC50 in experiment [1] is 1.58 nM.
